{"source": "patent US20190192527A1", "about": "“COMPOSITIONS COMPRISING PIKFYVE INHIBITORS AND METHODS RELATED TO INHIBITION OF RANK SIGNALING” (AI Therapeutics, Inc., priority 2016, published 2019)", "key": {"[1]": {"system": "periodontal bone resorption", "assay": "rat periodontal disease model", "type": "in vivo", "experimental": "FIGS. 6A-6B: Graphical representation of the effect of apilimod on periodontal bone resorption (A). Daily oral doses of apilimod (8 and 20 mg/kg) reduce bone loss (B).\nMoreover, apilimod was active in inhibiting in vivo osteoclast activity in a rat periodontal disease model (see FIGS. 6A-6B). In brief, Th-1 type clonal cells specific for Actinobacillus actinomycetemcomitans (Aa) 29-kDa outer membrane protein (Omp29) were activated by incubation with formalin-killed Aa and irradiated syngeneic rat spleen cells. These activated cells were then transferred intravenously through the rat tail vein (1.0×10^7 cells) into the rat. On the same day, the antigen Omp29 was injected with LPS into the left palatal maxilla gingiva; and saline was injected into the right palatal maxilla gingiva, for control measurements. Apilimod was given orally in daily doses of 8 and 20 mg/kg from the day of the induction until day 10. At the end of the ten day period, animals were sacrificed and their jaws were defleshed to allow the assessment of periodontal bone resorption, calculated as the ratio of the difference in cemento-enamel junction (CEJ-AL) distance between left and right sides versus CEJ-AL distance of right."}, "pKa": {"assay": "pKa", "type": "physicochemical"}, "Cathepsin K": {"system": "Cathepsin K", "assay": "Cathepsin K maturation, western blot in RAW 264.7-derived osteoclasts", "type": "cell-based", "settings": "differentiated with 30 ng/ml RANKL 4 days, then RANKL and apilimod 24 hours", "experimental": "RAW264.7 macrophages were differentiated with 30 ng/ml RANKL for 4 days and subsequently treated with RANKL and the indicated concentration of apilimod for 24 hours prior to harvesting lysates and performing western blot for the indicated protein."}, "CYP3A4, CYP1A2, CYP2D6": {"system": "CYP3A4, CYP1A2, CYP2D6", "assay": "reaction phenotyping studies", "type": "in vitro ADME", "experimental": "(§1) In embodiments, the apilimod for use in the compositions and methods of the invention is the free base or dimesylate salt form, MW 610.7 (dimesylate salt); tPSA 83.1; pKa 5.39 (±0.03), 4.54 (±0.27); HBD 1. […] In embodiments, an active metabolite of apilimod may be used. […] Tmax generally occurred within 1 or 2 hours after the oral dose, consistent with the rapid […] of this compound from the circulation. […] The primary metabolites are short-lived in circulation. Both apilimod free base and the dimesylate salt are highly bound ([…]) to rat, dog and human plasma proteins."}, "[2]": {"system": "RANK, c-Fos, MITF, PU.1, TRAF6, OPG", "assay": "RNA expression of osteogenic factors by quantitative PCR in RAW264.7 macrophages", "type": "cell-based", "settings": "undifferentiated and RANKL-differentiated (30 ng/mL, 3 days) cells, apilimod 24h", "from_the_text": "FIG. 5A-5B: Effect of apilimod treatment on the RNA expression of osteogenic factors RANK, c-Fos, microphthalmia-associated transcription factor (MITF), PU.1, TNF receptor associated factor 6 (TRAF6) and osteoprotegerin (OPG) in undifferentiated (A) or differentiated (B) RAW264.7 macrophages as assessed by quantitative PCR.\n(§2) Apilimod blocked the expression of RANK receptor and the transcription factors MITF, PU.1 and c-Fos in both undifferentiated and RANKL-differentiated RAW264.7 macrophages. Cells were differentiated for a total of 3 days with 30 ng/mL RANKL. On the last day of differentiation cells were co-treated with RANKL and the indicated concentration of apilimod or vehicle for 24h. […] (see FIGS. 5A-5B)."}, "osteoclast formation": {"system": "osteoclast formation", "settings": "in vitro assay, described in WO 2005/000404; read-out: IC50, inhibitory activity against osteoclast formation; cited from earlier work"}, "RAW264.7 macrophages": {"system": "RAW264.7 macrophages", "assay": "RANKL-induced differentiation of TRAP positive osteoclasts from RAW264.7 macrophages", "type": "cell-based", "experimental": "RAW264.7 macrophages were differentiated with either vehicle or 30 ng/mL RANKL for a total of 5 days. For the last 3 days of differentiation, cells were co-treated with the indicated concentration of apilimod. Cells were subsequently stained for TRAP. Arrows highlight giant TRAP positive, multinucleated osteoclasts.\nFIGS. 4A-4B: Inhibition of RANKL-induced differentiation of RAW264.7-derived osteoclasts by apilimod as indicated by a reduction in the number of TRAP-positive multinucleated cells (A) or giant osteoclasts (B). The average of triplicate wells was determined and percentages relative to untreated are shown.\nas §2"}, "[3]": {"assay": "microsomal and hepatocyte stability studies, metabolite identification", "type": "in vitro ADME", "settings": "rat and human microsomal and hepatocyte stability studies", "experimental": "as §1"}, "WSU-DLCL2B cell lymphoma": {"system": "WSU-DLCL2B cell lymphoma", "assay": "viability (CellTiter Glo) of CRISPR guide RNA cell pools treated with apilimod", "type": "cell-based", "settings": "treated for 3 days", "experimental": "Pools cells containing guide RNAs targeted against either the indicated genes or non-targeting (NT) guide RNAs were treated with apilimod for 3 days and viability was assayed by CellTiter Glo (Promega).\nA genome-wide CRISPR screen for factors conferring resistance of B-cell lymphoma to apilimod uncovered the lysosomal regulator TFEB as well as the lysosomal and osteopetrosis-associated genes CLCN7, OSTM1, and SNX10 as mediators of apilimod-induced cytotoxicity (see FIGS. 1A-1D)."}, "MPC-11 tumor cells": {"system": "MPC-11 tumor cells", "assay": "systemic MPC-11 syngeneic model of multiple myeloma", "type": "in vivo, mouse", "from_the_text": "To determine if apilimod inhibition of RANKL/RANK signaling blocks the bone growth of multiple myeloma cells in vivo, the systemic MPC-11 syngeneic model was used (Laskov R et al. J Exp Med. 1970 131(3):515-41; Ferguson V L et al. Bone. 2002 30(1): 109-116). In this model, animals develop hind limb paralysis due to infiltration of multiple myeloma cells into the vertebrae that compresses the spinal column. In brief, MPC-11 tumor cells were maintained in vitro in DMEM medium supplemented with 10% horse serum at 37° C. in 5% CO2. Each mouse was then injected via the tail vein with MPC-11 tumor cells (1×10^6) in 0.1 ml of PBS for tumor development. The regimen of dosing is detailed in Table 1. At 4 days post-tumor inoculation, mice were orally administered with a vehicle or apilimod dimesylate (70 mg/kg) twice a day up to 35 days. Survival rate of vehicle-treated animal group (n=10) and apilimod-treated animal group (n=10) were monitored as an indicator of hind limb paralysis.\nTo directly examine the effect of apilimod on the MPC-11 tumor burden in bone, immunohistochemical staining was performed. Femurs from the in vivo experiment were fixed in 10% formalin and then rinsed in 70% ethanol and dehydrated in acetone before embedding in methacrylate. 4 μm sections were then stained in 2% Toluidine blue. […] Orange boxed region on left panel is shown at 40× magnification in the right panel. Note total effacement of bone marrow architecture and replacement with MPC-11 tumor cells in top panel. […] This effect was quantitated by generating paraffin sections from tibias of the animals and staining the sections with the multiple myeloma marker CD138 (BioLegend antibody, Clone 281-2). Values for CD138 positive staining were obtained by measuring within in a pre-defined Region of Interest (ROI) defined as 1.17 millimeter square, 200 micrometer below the tibia proximal growth plate. CD138 positive staining was measured according to standard protocols (Dempster D W et al. J Clin Endocrinol Metab. 2012 97(8):2799-2808)."}, "[4]": {"settings": "RANKL-induced differentiation, relative to untreated"}, "[5]": {"settings": "tibia sections, ROI 1.17 millimeter square, n = 5, apilimod dimesylate 70 mg/kg p.o. BID"}}, "data": [{"compound": "Cc1cccc(/C=N/Nc2cc(N3CCOCC3)nc(OCCc3ccccn3)n2)c1", "note": "[apilimod]", "values": [{"measurement": "protection against Th1-mediated bone loss (periodontal bone resorption)", "setting": "[1]; 8 mg/kg orally daily until day 10", "value": "significant protection"}, {"measurement": "protection against Th1-mediated bone loss (periodontal bone resorption)", "setting": "[1]; 20 mg/kg orally daily until day 10", "value": "significant protection"}, {"measurement": "pKa", "setting": "pKa", "value": 5.39}, {"measurement": "cathepsin K processing (maturation)", "setting": "Cathepsin K", "value": "inhibition of cathepsin K processing"}, {"measurement": "enzymes that contribute to metabolism", "setting": "CYP3A4, CYP1A2, CYP2D6", "value": "CYP3A4 and to a lesser extent CYP1A2 and/or CYP2D6"}, {"measurement": "RNA expression of RANK, c-Fos, MITF, and PU.1", "setting": "[2]", "value": "Decreases were observed"}, {"measurement": "RNA expression of TRAF6 or OPG", "setting": "[2]", "value": "Significant decreases were not observed"}, {"measurement": "IC50", "setting": "osteoclast formation", "value": 15, "unit": "nM"}, {"measurement": "RANKL-stimulated osteoclastogenesis", "setting": "RAW264.7 macrophages; 30 ng/mL RANKL 5 days, apilimod for the last 3 days, TRAP staining", "value": "potently blocked"}, {"measurement": "number of TRAP-positive multinucleated cells", "setting": "RAW264.7 macrophages; [4]", "value": "reduction"}, {"measurement": "number of giant osteoclasts", "setting": "RAW264.7 macrophages; [4]", "value": "reduction"}, {"measurement": "primary metabolites identified", "setting": "[3]", "value": "Six primary metabolites"}, {"measurement": "effect of CRISPR-induced loss of CLCN7, OSTM1, SNX10, TFEB on viability under apilimod", "setting": "WSU-DLCL2B cell lymphoma", "value": "confer resistance to apilimod"}, {"measurement": "invasion of myeloma cells in femur marrow, toluidine blue staining, qualitative", "setting": "MPC-11 tumor cells; apilimod dimesylate 70 mg/kg p.o. BID", "value": "minimal invasion"}, {"measurement": "animals with hind limb paralysis", "setting": "MPC-11 tumor cells; apilimod dimesylate 70 mg/kg p.o. twice a day up to 35 days, n=10", "value": "none"}, {"measurement": "Tumor Area, CD138 staining", "setting": "MPC-11 tumor cells; [5]", "value": "0.012 ± 0.03", "unit": "mm^2"}, {"measurement": "Tumor Area/ Tissue Area, CD138 staining", "setting": "MPC-11 tumor cells; [5]", "value": "0.010 ± 0.02", "unit": "%"}]}]}
